Laboratory results: patent US12041933B1, “N-(pyrimidin-2-ylcarbamothioyl) benzamide as an eco-friendly insecticidal agent against Spodoptera littoralis (BOISD.)” (KING FAISAL UNIVERSITY, priority 2023, dated 2024)
Converted amounts (≈) assume the structure as drawn. Where two headings read alike, the source gives them in different places.

Tested on: cotton leafworm, S. littoralis
Experiment: Insecticidal bioassay screening (castor leaf dip), second and fourth instar larvae, laboratory strain
Format: in vivo
Conditions: for Toxicity index %: 72 hrs, Diflubenzuron's LC50/compound's LC50 × 100; for LC50: Spodoptera littoralis, foliar
Experimental: Five concentrations (200, 100, 50, 25, 12.5 ppm) were designed for this synthetic compound and the reference Diflubenzuron compound as the dynamic ingredients based on mg/L via diluting the commercial formulation.
In this experiment, castor leaves are immersed in each of the previously prepared concentrations of the components for 10 seconds and then left to dry for 60 minutes. Larvae of the second and fourth instars of each checked strain are prepared with treated leaves in gauze-covered glass containers for 72 hrs. An untreated control is made in which leaves are dipped in triton x-100 and distilled water only. Then the preserved leaves were removed & fresh, untreated leaves were provided for 72 hours. Three replicates (10 larvae each) were checked for each concentration. Daily inspection was carried out for all treatments and mortality percentages were recorded 3 days (72 hours) after treatment. The average mortality percentage was corrected employing Abbott's formula. The corrected mortality rate for each of the previously synthesized compounds is statistically calculated according to Finney (1970). Through this rate, the corresponding concentration test lines (LDP lines) are assessed.

[1] = 72 h, read-out: LC50 (mg/L) at 95%, 2nd instar larvae, after 72 hrs of treatment
[2] = 72 h, read-out: LC50 (mg/L) at 95%, 4th instar larvae, after 72 hrs of treatment
[3] = against Spodoptera littoralis under laboratory conditions, instar not stated

SMILES | Toxicity index % (2nd instar larvae) | Toxicity index % (4th instar larvae) | LC50 [1] | LC50 [2] | LC50 [3] | LC50 (72 h, 4th instars of larvae, after 72 hours of treatment)
O=C(NC(=O)c1c(F)cccc1F)Nc1ccc(Cl)cc1 [Diflubenzuron, reference compound] | 100% | 100% | 45.2 mg/L (≈ 145 µM) | 144 mg/L (≈ 464 µM) | 45.2 mg/L (≈ 145 µM) | 
O=C(NC(=S)Nc1ncccn1)c1ccccc1 [Compound 3, N-(Pyrimidin-2-ylcarbamothioyl) benzamide] | 16.7% | 22.8% | ~96.8 mg/L (≈ 375 µM) | 631 mg/L (≈ 2440 µM) | 96.8 mg/L (≈ 375 µM) | ~631 mg/L (≈ 2440 µM)
